The values that follow come from patent publication US20220362230A1, “USE OF GLUTARIMIDE DERIVATIVE FOR OVERCOMING STEROID RESISTANCE AND TREATING DISEASES ASSOCIATED WITH ABERRANT INTERFERON GAMMA SIGNALING” ("CHEMIMMUNE THERAPEUTICS" LIMITED LIABILITY COMPANY, priority 2018, published 2022).

One test concerns IFN-γ. The experiment in a line: Phase II clinical trial, interferon-γ concentration in blood plasma. In kind it is in vivo, human. Particulars: with baseline therapy, compared with baseline therapy and placebo; regardless of IFN-γ level at inclusion. As to the method: (§1) During the study therapy phase, patients received Compound 1 or placebo for 12 weeks against the background of baseline steroid therapy with low doses of inhaled corticosteroids. Compound 1 or placebo was administered orally once a day, 30 minutes before breakfast.
(§2) To study the effect of the IFN-γ baseline level in patients with asthma, the results obtained in the clinical study were additionally analyzed; the patients' response to therapy was studied depending on their IFN-γ baseline level in the blood at the time of trial inclusion (determined by the Bio-Plex Pro Human Chemokine Panel Assay (Bio-Rad)).
(§3) Moreover, in the clinical trial, Compound 1 was also analyzed for its effect on IFN-γ signal transduction. […] Thus, the suppression of steroid resistance induced by the use of Compound 1 could potentially be associated with an effect on the aberrant activity (signaling) of IFN-γ.

The subject of test [1] is interferon-γ-dependent cytokine CXCL10 (interferon-gamma-induced protein IP10). As to the kind of experiment: Phase II clinical trial, CXCL10 concentration in blood plasma. The test is classed as in vivo, human. Particulars: with baseline steroid therapy; patients with IFN-γ baseline level >100 pg/ml. As to the method: as §1, §2, §3
Test [2] deals with acute oxazolone-induced ulcerative colitis. The experiment in a line: Murine model of acute oxazolone-induced ulcerative colitis. In kind it is in vivo, female balb/c mice. Particulars: for The degree of large intestine wall damage, score: 72 hours after oxazolone, M ± m, n=10. As to the method: The activity of Compound 1 in a model of acute oxazolone-induced ulcerative colitis was studied using the standard method [Immunity. 2002. P. 629-638]. In the study, female balb/c mice (6-8 weeks old) were used. Compound I was administered intragastrically, three times: 1 hour, 25 hours, and 49 hours after rectal administration of oxazolone. The body weight of the animals was measured before and 24, 48 and 72 hours after administration of oxazolone. The intestinal wall damage was evaluated under a microscope 72 hours after administration of oxazolone, according to the following score scale: 0=no damage, 1=hyperemia, no ulcers, 2=hyperemia, thickening of the intestinal wall, no ulcers, 3=one ulcer without thickening of the intestinal wall, 4=2 or more sites of ulceration or inflammation, 5=2 or more serious sites of ulceration and inflammation, or one site of ulceration/inflammation, extending >1 cm along the length of the colon, and 6-10=damage covers>2 cm long the length of the colon, the score is increased by 1 for each additional 1 cm of involvement. All data were analyzed by descriptive statistics: arithmetic mean (M) and standard error of the arithmetic mean (m). The Shapiro-Wilk test was used to check the normality of the distribution of the obtained experimental data. A normal distribution was analyzed with 1-way ANOVA (with Dunnett's post-analysis) to assess intergroup differences. A non-normal distribution was analyzed with […] (with Tukey's post-analysis) to compare several groups. Differences were determined at a confidence level of 5%.

Test [3] deals with cough induced by inhalation of citric acid and IFN-γ. As to the kind of experiment: Guinea pig model of cough induced by inhalation of citric acid and IFN-γ. Particulars: for The number of coughing movements within 8 minutes: 7 hours before citric acid inhalation, M ± m, n=5. In kind it is in vivo, guinea pigs of the Aguti line. As to the method:
The activity of Compound I in a model of cough in guinea pigs, which was induced by inhalation of citric acid and IFN-γ, was studied in accordance with the method [Am J Respir Crit Care Med. 2018. V. 198(7). P. 868-879].
In the study, guinea pigs of the Aguti line were used. All experimental animals were inhaled with a citric acid solution (0.3 M) prepared in physiological saline, for 8 minutes. The pathology control group and the groups receiving therapy were inhaled with IFN-γ (10 pg/kg) for 3 minutes at 7 hours before the inhalation of citrate. Compound 1 was administered intragastrically once, immediately after inhalation of IFN-γ, i.e. 7 hours before inhalation of the citric acid solution. The antitussive activity was evaluated by counting the number of coughing fits within 8 minutes from the start of inhalation of citric acid. All data were analyzed by descriptive statistics: arithmetic mean (M) and standard error of the arithmetic mean (m). The Shapiro-Wilk test was used to check the normality of the distribution of the obtained experimental data. A normal distribution was analyzed with 1-way ANOVA (with Dunnett's post-analysis) to assess intergroup differences. A non-normal distribution was analyzed with […] (with Tukey's post-analysis) to compare several groups. Differences were determined at a confidence level of 5%.

Test [4] concerns patients with bronchial asthma. The experiment in a line: Phase II clinical trial (PULM-XC8-02, NCT03450434), response to baseline inhaled corticosteroid therapy (FEV1). The test is classed as in vivo, human. As to the method: Thus, Compound is potentially useful for the therapy of diseases associated with the development of steroid resistance, in particular for the treatment of steroid-resistant asthma.
In the clinical trial, eligible patients were randomized 1:1:1:1 to one of four groups: • Compound 1 at a dose of 2 mg per day; • Compound 1 at a dose of 10 mg per day; • Compound 1 at a dose of 100 mg per day; and • Placebo.
as §1
Thus, one of the effects of the use of Compound 1 is the overcoming of the resistance to corticosteroids, which is the backbone of the baseline therapy of patients enrolled in the clinical trial.
as §2
The patients' response to baseline therapy in the groups of baseline steroid therapy and placebo decreased with an increase in the IFN-γ baseline level (FIG. 2). […] This fact indicates the overcoming of steroid resistance that can be caused, inter alia, by aberrant IFN-γ signaling.

Turning to `O=C1CCCC(=O)N1CCc1cnc[nH]1` [Compound 1, 1-(2-(1H-imidazol-4-yl)ethyl)piperidine-2,6-dione], the “Change in concentration of IFN-γ in blood plasma, week 12 vs week 0” value in the test on IFN-γ is “negative dynamics of IFN-γ concentrations”. Further, in test [1], the “Change in concentration of CXCL10 (IP10) in blood plasma, week 12 vs week 0” value is “suppressed the concentration of interferon-γ-dependent cytokine CXCL10”. For the same compound, the “The degree of large intestine wall damage, score” value was 1.70 ± 0.30 score in test [2] (0.3 mg/kg intragastrically x3), 1.89 ± 0.31 score in test [2] (3 mg/kg intragastrically x3) and 1.40 ± 0.16& score in test [2] (30 mg/kg intragastrically x3). In addition, the Body weight in test [2] (0.3 mg/kg, 24 hours after administration of oxazolone) amounted to 17.9 ± 0.2 g; in test [2] (0.3 mg/kg, 48 hours after administration of oxazolone), 17.5 ± 0.3 g; in test [2] (0.3 mg/kg, 72 hours after administration of oxazolone), 16.9 ± 0.2 g; in test [2] (0.3 mg/kg, before administration of oxazolone) it was 19.0 ± 0.6 g; in test [2] (3 mg/kg, 24 hours after administration of oxazolone) it was 17.9 ± 0.3 g; in test [2] (3 mg/kg, 48 hours after administration of oxazolone) it was 17.6 ± 0.2 g. The Body weight was 16.7 ± 0.2 g in test [2] (3 mg/kg, 72 hours after administration of oxazolone); 18.7 ± 0.4 g in test [2] (3 mg/kg, before administration of oxazolone); 18.8 ± 0.2& g in test [2] (30 mg/kg, 24 hours after administration of oxazolone); 18.4 ± 0.4& g in test [2] (30 mg/kg, 48 hours after administration of oxazolone); 18.4 ± 0.5& g in test [2] (30 mg/kg, 72 hours after administration of oxazolone); 19.8 ± 0.6 g in test [2] (30 mg/kg, before administration of oxazolone). Besides, in test [2] (administered intragastrically), the “Effect on degree of damage of the colon wall” value was “reduced the degree of damage of the colon wall”. The “Effect on weight loss in animals” value in test [2] (administered intragastrically) was “prevented weight loss”. Also, the “Intensity of action compared with reference steroid” value in test [2] (murine model of ulcerative colitis) is recorded as “not inferior to prednisolone by intensity of action”. For the same compound, the “The number of coughing movements within 8 minutes” value is 19.2 ± 2.7& in test [3] (1.4 mg/kg intragastrically once) and 18.4 ± 2.9& in test [3] (14 mg/kg intragastrically once). The “Effect on number of coughing movements” value in test [3] (administered intragastrically) is on record as “reduced the number of coughing movements”. In test [4] (100 mg per day with baseline steroid therapy vs placebo, especially patients with IFN-γ level more than 100 pg/ml), the “Response to therapy (change in FEV1, week 12 vs. week 0)” value is “significantly greater and clinically significant response to therapy”. Also, the Clinical effect entry in test [4] (100 mg per day, 12 weeks, with baseline low-dose inhaled corticosteroids) was “clinically significant effect”. For the same compound, the “Number of patients with an increase in FEV1 by 100 ml or more (response to baseline steroid therapy)” value in test [4] (baseline steroid therapy and Compound 1, 12 weeks, oral once a day, placebo group 13 out of 29) was 20 patients out of 29.
With `C[C@]12C=CC(=O)C=C1CC[C@@H]1[C@@H]2C(=O)C[C@@]2(C)[C@H]1CC[C@]2(O)C(=O)CO` [Prednisone, reference compound], the Body weight in test [2] (10 mg/kg, 24 hours after administration of oxazolone) stood at 18.5 ± 0.4 g; in test [2] (10 mg/kg, 48 hours after administration of oxazolone), 17.9 ± 0.4 g; in test [2] (10 mg/kg, 72 hours after administration of oxazolone) it was 17.3 ± 0.6 g; in test [2] (10 mg/kg, before administration of oxazolone), 19.0 ± 0.4 g. Further, in test [2] (10 mg/kg), the “The degree of large intestine wall damage, score” value is reported as 1.80 ± 0.25 score.
